Reference: article PMC3698094, “Similarly Potent Inhibition of Adenylyl Cyclase by P-Site Inhibitors in Hearts from Wild Type and AC5 Knockout Mice” (PLoS ONE, 2013)
pEC50, pIC50: −log10 of the molar value.

Tests used:
Assay in all cases: radiochemical AC activity assay, […]cAMP from [α-32P]ATP, Sf9 membranes
Assay type in all cases: biochemical
AC1 (recombinant) [1] = target: T1, AC1 (recombinant) (Bos taurus, UniProt P19754); settings: read-out: Recombinant ACs / AC1
T1 construct: gene ADCY1; recombinant membranous AC1 expressed by baculovirus in Sf9 cells; crude Sf9 membranes

AC2 (recombinant) [2] = target: T2, AC2 (recombinant) (Rattus norvegicus, UniProt P26769); settings: read-out: Recombinant ACs / AC2
T2 construct: gene Adcy2; recombinant membranous AC2 expressed by baculovirus in Sf9 cells; crude Sf9 membranes

AC5 (recombinant) [3] = target: T3, AC5 (recombinant) (Canis lupus, UniProt P30803); settings: read-out: Recombinant ACs / AC5
T3 construct: gene ADCY5; recombinant membranous AC5 expressed by baculovirus in Sf9 cells; crude Sf9 membranes

AC5 (recombinant) [4] = target: T3, AC5 (recombinant); settings: read-out: RecombinantACs / AC5
AC1 (recombinant) [5] = target: T1, AC1 (recombinant); settings: read-out: RecombinantACs / AC1
AC2 (recombinant) [6] = target: T2, AC2 (recombinant); settings: read-out: RecombinantACs / AC2

T3 sequence (P30803 whole entry): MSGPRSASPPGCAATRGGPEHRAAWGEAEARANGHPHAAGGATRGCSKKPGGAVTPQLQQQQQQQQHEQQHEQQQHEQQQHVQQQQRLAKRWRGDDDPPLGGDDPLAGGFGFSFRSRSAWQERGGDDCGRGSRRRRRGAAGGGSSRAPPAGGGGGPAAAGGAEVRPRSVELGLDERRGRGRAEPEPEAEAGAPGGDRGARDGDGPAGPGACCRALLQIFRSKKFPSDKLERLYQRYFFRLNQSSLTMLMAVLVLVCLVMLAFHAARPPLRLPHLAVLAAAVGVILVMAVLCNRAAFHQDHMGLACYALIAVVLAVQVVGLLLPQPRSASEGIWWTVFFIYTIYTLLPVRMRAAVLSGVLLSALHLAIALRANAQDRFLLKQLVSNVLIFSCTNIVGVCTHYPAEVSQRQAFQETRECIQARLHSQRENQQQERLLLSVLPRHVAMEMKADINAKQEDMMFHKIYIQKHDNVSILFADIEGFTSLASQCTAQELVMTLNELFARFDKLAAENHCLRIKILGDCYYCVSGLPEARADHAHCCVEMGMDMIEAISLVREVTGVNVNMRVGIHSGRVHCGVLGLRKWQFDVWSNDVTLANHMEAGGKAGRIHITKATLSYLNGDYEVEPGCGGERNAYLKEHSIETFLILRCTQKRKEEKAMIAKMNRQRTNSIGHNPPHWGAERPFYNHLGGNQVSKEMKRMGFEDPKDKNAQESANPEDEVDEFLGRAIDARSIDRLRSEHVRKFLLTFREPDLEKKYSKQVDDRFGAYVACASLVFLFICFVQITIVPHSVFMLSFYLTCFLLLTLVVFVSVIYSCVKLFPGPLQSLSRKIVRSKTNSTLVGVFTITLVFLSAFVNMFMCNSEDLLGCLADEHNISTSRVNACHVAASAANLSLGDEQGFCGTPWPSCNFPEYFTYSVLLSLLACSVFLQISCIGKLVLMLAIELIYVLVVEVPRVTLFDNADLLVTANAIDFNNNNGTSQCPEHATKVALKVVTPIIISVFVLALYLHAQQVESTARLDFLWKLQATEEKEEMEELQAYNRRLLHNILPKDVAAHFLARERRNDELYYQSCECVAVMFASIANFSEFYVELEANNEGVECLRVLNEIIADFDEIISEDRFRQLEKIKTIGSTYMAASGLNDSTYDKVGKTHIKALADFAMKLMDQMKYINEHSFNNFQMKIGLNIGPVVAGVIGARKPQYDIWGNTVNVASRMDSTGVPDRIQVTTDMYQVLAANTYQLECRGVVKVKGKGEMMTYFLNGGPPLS
T2 sequence (P26769 whole entry): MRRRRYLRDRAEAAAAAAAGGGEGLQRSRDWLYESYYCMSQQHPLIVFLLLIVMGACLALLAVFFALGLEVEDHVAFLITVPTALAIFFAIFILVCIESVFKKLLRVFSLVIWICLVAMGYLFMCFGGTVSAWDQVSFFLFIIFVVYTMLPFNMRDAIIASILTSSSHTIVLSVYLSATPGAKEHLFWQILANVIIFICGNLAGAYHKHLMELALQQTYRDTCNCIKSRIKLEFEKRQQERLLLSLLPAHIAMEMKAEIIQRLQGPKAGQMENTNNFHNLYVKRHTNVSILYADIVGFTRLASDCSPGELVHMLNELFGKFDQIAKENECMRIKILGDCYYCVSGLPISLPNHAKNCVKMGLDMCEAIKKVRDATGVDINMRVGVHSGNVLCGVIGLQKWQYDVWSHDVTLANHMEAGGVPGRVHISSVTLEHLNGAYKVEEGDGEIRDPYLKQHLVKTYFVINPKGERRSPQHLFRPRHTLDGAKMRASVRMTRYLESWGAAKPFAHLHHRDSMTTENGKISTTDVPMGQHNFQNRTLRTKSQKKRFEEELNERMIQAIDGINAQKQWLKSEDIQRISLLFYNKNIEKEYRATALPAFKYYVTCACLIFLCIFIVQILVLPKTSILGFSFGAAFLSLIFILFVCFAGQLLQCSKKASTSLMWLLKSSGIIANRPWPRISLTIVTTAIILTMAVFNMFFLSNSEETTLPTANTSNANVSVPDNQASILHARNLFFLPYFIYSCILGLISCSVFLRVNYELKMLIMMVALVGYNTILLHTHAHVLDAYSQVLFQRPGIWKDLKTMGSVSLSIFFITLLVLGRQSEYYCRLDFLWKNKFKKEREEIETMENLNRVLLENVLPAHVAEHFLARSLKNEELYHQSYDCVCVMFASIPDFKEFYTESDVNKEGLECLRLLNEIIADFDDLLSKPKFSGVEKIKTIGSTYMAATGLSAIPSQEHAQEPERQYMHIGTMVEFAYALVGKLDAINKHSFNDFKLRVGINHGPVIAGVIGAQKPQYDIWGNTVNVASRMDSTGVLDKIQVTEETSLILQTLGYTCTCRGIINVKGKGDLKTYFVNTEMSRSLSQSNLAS
T1 sequence (P19754 whole entry): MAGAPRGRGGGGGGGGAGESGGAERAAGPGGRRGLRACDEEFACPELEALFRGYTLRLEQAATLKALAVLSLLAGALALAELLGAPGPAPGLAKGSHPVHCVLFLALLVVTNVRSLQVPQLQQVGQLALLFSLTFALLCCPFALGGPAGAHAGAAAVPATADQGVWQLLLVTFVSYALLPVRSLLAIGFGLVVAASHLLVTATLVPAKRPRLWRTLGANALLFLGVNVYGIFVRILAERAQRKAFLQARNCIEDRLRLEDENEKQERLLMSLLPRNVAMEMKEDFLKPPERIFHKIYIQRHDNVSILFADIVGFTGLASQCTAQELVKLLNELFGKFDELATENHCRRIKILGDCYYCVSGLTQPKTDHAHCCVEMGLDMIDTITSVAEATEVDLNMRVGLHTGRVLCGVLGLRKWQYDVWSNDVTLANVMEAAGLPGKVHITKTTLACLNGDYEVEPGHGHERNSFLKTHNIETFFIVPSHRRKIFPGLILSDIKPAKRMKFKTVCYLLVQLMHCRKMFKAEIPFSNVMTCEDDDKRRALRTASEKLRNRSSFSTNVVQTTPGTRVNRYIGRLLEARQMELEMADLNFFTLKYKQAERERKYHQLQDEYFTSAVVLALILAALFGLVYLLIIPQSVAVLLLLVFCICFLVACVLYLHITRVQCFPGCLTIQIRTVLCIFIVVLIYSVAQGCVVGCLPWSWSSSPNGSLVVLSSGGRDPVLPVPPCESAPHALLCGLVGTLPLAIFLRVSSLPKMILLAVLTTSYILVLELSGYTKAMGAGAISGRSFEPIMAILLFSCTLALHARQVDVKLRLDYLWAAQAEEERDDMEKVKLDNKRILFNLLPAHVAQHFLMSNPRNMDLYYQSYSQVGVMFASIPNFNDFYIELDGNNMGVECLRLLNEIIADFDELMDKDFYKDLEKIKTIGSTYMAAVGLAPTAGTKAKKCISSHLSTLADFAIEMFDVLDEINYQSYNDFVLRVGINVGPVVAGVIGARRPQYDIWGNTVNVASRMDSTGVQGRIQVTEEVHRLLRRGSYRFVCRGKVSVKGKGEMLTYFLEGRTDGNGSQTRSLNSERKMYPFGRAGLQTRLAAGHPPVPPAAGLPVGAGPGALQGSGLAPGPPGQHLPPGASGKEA

Row | pIC50 (AC1 (recombinant) [1]) | pIC50 (AC2 (recombinant) [2]) | pIC50 (AC5 (recombinant) [3]) | pEC50 (AC5 (recombinant) [4]) | pEC50 (AC1 (recombinant) [5]) | pEC50 (AC2 (recombinant) [6]) | SMILES
1 | 3.96 | 3.42 | 5.02 |  |  |  | Nc1ncnc2c1ncn2C1CCCO1 (stereo not drawn) [SQ22,536, 9-(tetra-hydro-2-furanyl)-9H-purin-6-amine]
2 | 3.48 | 2.95 | 4.09 |  |  |  | Nc1ncc2c(n1)CC(c1ccco1)CC2=O (stereo not drawn) [NKY80, 2-amino-7-(2-furanyl)-7,8-dihydro-5(6H)-quinazolinone]
3 |  |  |  | 5.24 | 5.64 | 4.87 | C=C[C@@]1(C)CC(=O)[C@]2(O)[C@@]3(C)[C@@H](O)CCC(C)(C)[C@@H]3[C@H](O)[C@H](OC(C)=O)[C@@]2(C)O1 [Forskolin]
4 | 3.86 | 3.26 | 4.70 |  |  |  | Nc1ncnc2c1ncn2[C@@H]1O[C@H](CO)[C@@H](O)[C@@H]1O [vidarabine, 9-β-D-arabinosyladenine]
